According to patent US20210379158A1, “METHOD FOR PREVENTING OR TREATING HEART FAILURE BY ADMINISTERING A MEDICAMENT CONTAINING AN ANTAGONIST OF CORTICOTROPIN RELEASING HORMONE RECEPTOR 2 (CRHR2)” (RaQualia Pharma Inc., priority 2017, published 2021):
No end group written: not given here.

Tests used:
[1] = tested on: Crhr2; assay: Pressure overload-induced cardiac dysfunction (TAC) in mice, continuous infusion initiated 1 wk after TAC; type: in vivo, mouse
Method: (§1) 8-10-week-old male mice were anesthetized with 50 mg/kg sodium pentobarbital, and osmotic minipumps (Alzet) containing Ucn2 (25, 50, 100 ng/g/day; Peptide Institute) or antisauvagine-30 (100 ng/g/day; Medical & Biological Laboratories) were implanted subcutaneously in the back for 4 wk.
TAC was performed under anesthesia and intubation. The chest was opened to visualize the aortic arch. The transverse aorta was then ligated between the right innominate and left common carotid arteries against a blunted 24-G needle with a 7-0 suture. The sham procedure was identical except that the aorta was not ligated.
(§2) Transthoracic echocardiography was performed on mice anesthetized with 50 mg/kg sodium pentobarbital. The left ventricular (LV) end-systolic diameter and the LV end-diastolic diameters were measured to calculate the % LV fractional shortening (% FS) in M-mode using an Acuson Sequoia C-512 (Siemens) with a 15-MHz probe. Systolic blood pressure (SBP) was measured by tail cuff method with an automatic sphygmomanometer (BP98A; Saffron) while the mice were restrained.
(§3) Mouse plasma Ucn2 and BNP were quantified by a mouse Ucn2 ELISA kit (Yanaihara), and by a BNP Enzyme Immunoassay kit (RayBiotech Inc.), respectively, according to the manufacturer's instructions.
Tissue samples were embedded in OCT compound (Sakura Finetek) and snap-frozen in liquid nitrogen. Left ventricular myocardium sections (6 μm slices) were stained with Picro-Sirius red with standard protocols and viewed with a BX51 microscope (Olympus). Cardiac fibrosis in 20 random images was quantified in ImageJ software.
We next investigated whether treatment with the Crhr2 antagonist, antisauvagine-30 (Rühmann et al., 1998, Proc. Natl. Acad. Sci. USA. 95:15264-15269), would attenuate the progression of established cardiac hypertrophy in mice. For this, continuous antisauvagine-30 infusion was initiated 1 wk after TAC surgery (FIG. 19).

[2] = acute intravenous injection; cited from earlier work
[3] = tested on: Crhr2; assay: Continuous Ucn2 infusion through subcutaneous osmotic pump in mice for 4 wk; type: in vivo, mouse
Method: as §1, §2, §3
To examine the effect of long-term Ucn2 up-regulation in vivo, we implanted mice with osmotic pumps that release Ucn2.

[4] = tested on: Crhr2; assay: Continuous Ucn2 infusion in cardiomyocyte-specific Crhr2 knockout mice and control mice; type: in vivo, mouse
From the text: Crhr2^tm1a(KOMP)Wtsi mice on a C57BL/6 background were generated by the Knock Out Mice Program (KOMP) at the University of California Davis (Davis, Calif.) and Children's Hospital Oakland Research Institute (Oakland, Calif.). Crhr2^tm1a(KOMP)Wtsi mice were bred with mice expressing Flp recombinase to obtain Crhr2 conditional KO mice (Crhr2^flox/flox mice). Crhr2^flox/flox mice were backcrossed at least 10 times to wild-type C57BL/6 genetic background mice. Tamoxifen-inducible, cardiomyocyte-specific Crhr2 knockout mice (cmc-Crhr2-KOs) were generated by intercrossing the αMHC-CreERT2 line to Crhr2^flox/flox mice (Takefuji et al., 2012, Circulation. 126:1972-1982). Cre-mediated recombination of floxed alleles was induced with an intraperitoneal injection of 1 mg tamoxifen dissolved in 100 μl Miglyol for 5 consecutive days. Vehicle-treated mice received Miglyol only, and αMHC-CreERT2+/−-Crhr2^wt/wt mice were used as controls. Experiments were performed 2 wk after the end of induction.
as §1, §2
To examine the functional significance of Crhr2 in cardiomyocytes in vivo, we generated mice with tamoxifen-inducible cardiomyocyte-specific Crhr2 deficiency (cmc-Crhr2-KO) by mating αMHC-CreERT2 mice with Crhr2^flox/flox mice.

| Substance | plasma BNP ([1]; TAC mice, 100 ng/g/day infusion from 1 wk after TAC, day 35, FIG. 22) | cardiac hypertrophy (left ventricular weight/tibia length ratio) ([1]; TAC mice, 100 ng/g/day infusion from 1 wk after TAC, day 35, FIG. 23) | cardiac fibrosis (fibrosis area) ([1]; TAC mice, 100 ng/g/day infusion from 1 wk after TAC, day 35, FIG. 24) | systolic blood pressure ([1]; TAC mice, 100 ng/g/day infusion from 1 wk after TAC, FIG. 20) | cardiac output (left ventricular fractional shortening) ([1]; TAC mice, 100 ng/g/day infusion from 1 wk after TAC, FIG. 21) | cardiac contraction [2] | TAC-induced cardiac dysfunction ([1]; 4 wk of sustained Ucn2 infusion initiating 1 wk after TAC surgery) | left ventricular fractional shortening ([3]; 4 wk Ucn2 infusion 100 ng/g/day, FIG. 8) | systolic blood pressure ([3]; 4 wk Ucn2 infusion 100 ng/g/day, FIG. 9) | blood levels of brain natriuretic peptide (BNP) ([3]; 4 wk Ucn2 infusion 100 ng/g/day, FIG. 10) | cardiac hypertrophy, left ventricular weight to tibia length ratio ([3]; 4 wk Ucn2 infusion 25, 50 or 100 ng/g/day, FIGS. 6 and 7) | circulating Ucn2 levels ([3]; after 4 wk of sustained Ucn2 infusion (25, 50 or 100 ng/g/day), osmotic pump, blood, FIG. 5) | fractional shortening decrease ([4]; cmc-Crhr2-KO mice, 4 wk of continuous Ucn2 infusion 100 ng/g/day, FIG. 13) | Ucn2-induced hypertrophic response (left ventricular weight/tibia length ratio) ([4]; cmc-Crhr2 KO mice, 4 wk Ucn2 100 ng/g/day, FIG. 12) | fractional shortening ([4]; control mice, 4 wk of continuous Ucn2 infusion 100 ng/g/day, FIG. 13) |
| --- | --- | --- | --- | --- | --- | --- | --- | --- | --- | --- | --- | --- | --- | --- | --- |
| antisauvagine-30 | strong reduction | strong reduction | strong reduction | without significantly affecting systolic blood pressure | protected mice from further deterioration of cardiac output | – | – | – | – | – | – | – | – | – | – |
| urocortin 2 (VILSLDVPIGLLRILLEQARYKAARNQAATNAQILAHV; ends and bridges not checked; UniProt Q99ML8 73-110, looked up) [Ucn2, Ligand/agonist of Crhr2, obtained from Peptide Institute] | – | – | – | – | – | accelerate cardiac contraction | accelerated TAC-induced cardiac dysfunction | decrease in left ventricular fractional shortening | without significantly affecting systolic blood pressure | significantly increased | increased left ventricular weight to tibia length ratio in a dose-dependent manner | elevated similar to those observed after TAC | significantly attenuated | failed to show a Ucn2-induced hypertrophic response | decreased fractional shortening |
